# Data from US11123683B2, “Carbon dioxide absorbent and apparatus of separating and recovering carbon dioxide” (Kabushiki Kaisha Toshiba, priority 2017, dated 2021).
# Experiment: pKa of amino group of the heterocyclic ring
# Type: physicochemical
# Settings: amino group in heterocyclic ring
row,SMILES,pKa
1,CC(=O)CN1CCNCC1 [1-(1-piperazinyl)-2-propanone],9.1
2,CN1CC(CO)NCC1=O (stereo not drawn) [5-hydroxymethyl-1-methyl-2-piperazinone],6.6
3,"O=C1CNCC(=O)N1 [2,6-piperazinedione]",4.3
